Laboratory results taken from the CheMixHub viscosity set.

Test: xn = mol fraction of the nth substance listed

c1ccccc1 + CCCCCCC
Details	viscosity [mPa·s]
294.15 K, 101 kPa, x1 = 0.6	0.4728
295.15 K, 101 kPa, x1 = 0.3	0.427
298 K, 101 kPa, x1 = 0.5	0.4167
298 K, 101.33 kPa, x1 = 0.1007	0.3923
298 K, 101.33 kPa, x1 = 0.1109	0.3913
298 K, 101.33 kPa, x1 = 0.1922	0.4003
298 K, 101.33 kPa, x1 = 0.276	0.4019
298 K, 101.33 kPa, x1 = 0.2915	0.4023
298 K, 101.33 kPa, x1 = 0.3953	0.4142
298 K, 101.33 kPa, x1 = 0.4839	0.4157
298 K, 101.33 kPa, x1 = 0.5204	0.4382
298 K, 101.33 kPa, x1 = 0.6729	0.4487
298 K, 101.33 kPa, x1 = 0.6893	0.5006
298 K, 101.33 kPa, x1 = 0.6967	0.4544
298 K, 101.33 kPa, x1 = 0.8532	0.5208
298 K, 101.33 kPa, x1 = 0.9152	0.5442
298.15 K, 101 kPa, x2 = 0.1025	0.53
298.15 K, 101 kPa, x2 = 0.2002	0.491
298.15 K, 101 kPa, x2 = 0.2919	0.46
298.15 K, 101 kPa, x2 = 0.4003	0.429
298.15 K, 101 kPa, x2 = 0.5192	0.41
298.15 K, 101 kPa, x2 = 0.6209	0.401
298.15 K, 101 kPa, x2 = 0.7084	0.392
298.15 K, 101 kPa, x2 = 0.7893	0.388
298.15 K, 101 kPa, x2 = 0.9165	0.386
298.15 K, 101.33 kPa, x2 = 0.095	0.532
298.15 K, 101.33 kPa, x2 = 0.1973	0.485
298.15 K, 101.33 kPa, x2 = 0.2999	0.455
298.15 K, 101.33 kPa, x2 = 0.3741	0.439
298.15 K, 101.33 kPa, x2 = 0.3984	0.431
298.15 K, 101.33 kPa, x2 = 0.4961	0.414
298.15 K, 101.33 kPa, x2 = 0.5995	0.403
298.15 K, 101.33 kPa, x2 = 0.6762	0.397
298.15 K, 101.33 kPa, x2 = 0.7309	0.395
298.15 K, 101.33 kPa, x2 = 0.7987	0.391
298.15 K, 101.33 kPa, x2 = 0.8933	0.389
308.15 K, 101 kPa, x2 = 0.1025	0.47
308.15 K, 101 kPa, x2 = 0.2002	0.44
308.15 K, 101 kPa, x2 = 0.2919	0.412
308.15 K, 101 kPa, x2 = 0.4003	0.388
308.15 K, 101 kPa, x2 = 0.5192	0.37
308.15 K, 101 kPa, x2 = 0.6209	0.36
308.15 K, 101 kPa, x2 = 0.7084	0.355
308.15 K, 101 kPa, x2 = 0.7893	0.351
308.15 K, 101 kPa, x2 = 0.9165	0.349
318 K, 101 kPa, x1 = 0.5	0.3407
318.15 K, 101 kPa, x2 = 0.1025	0.42
318.15 K, 101 kPa, x2 = 0.2002	0.396
318.15 K, 101 kPa, x2 = 0.2919	0.371
318.15 K, 101 kPa, x2 = 0.4003	0.352
318.15 K, 101 kPa, x2 = 0.5192	0.338
318.15 K, 101 kPa, x2 = 0.6209	0.33
318.15 K, 101 kPa, x2 = 0.7084	0.325
318.15 K, 101 kPa, x2 = 0.7893	0.319
318.15 K, 101 kPa, x2 = 0.9165	0.318
323.15 K, 101 kPa, x1 = 0.6	0.342

O=[N+]([O-])c1ccccc1 + CCCC(C)O
viscosity [mPa·s], 100 kPa
Details	x1 = 0.081	x1 = 0.1601	x1 = 0.24	x1 = 0.35	x1 = 0.4401	x1 = 0.56	x1 = 0.6503	x1 = 0.7402	x1 = 0.8504	x1 = 0.9404
293.15 K	3.323	2.827	2.444	2.095	1.931	1.863	1.867	1.914	1.999	2.054
298.15 K	2.753	2.364	2.068	1.809	1.697	1.67	1.684	1.738	1.821	1.878
303.15 K	2.317	2.016	1.794	1.598	1.517	1.503	1.523	1.579	1.66	1.718
308.15 K	1.993	1.776	1.608	1.454	1.385	1.36	1.377	1.421	1.497	1.568
313.15 K	1.711	1.545	1.417	1.301	1.249	1.239	1.259	1.302	1.378	1.451
318.15 K	1.497	1.375	1.28	1.188	1.148	1.135	1.15	1.188	1.26	1.338
323.15 K	1.311	1.227	1.159	1.089	1.055	1.044	1.057	1.091	1.16	1.238

O=[N+]([O-])c1ccccc1 + CCCO
viscosity [mPa·s], 101.33 kPa
Details	x1 = 0.0517	x1 = 0.1088	x1 = 0.173	x1 = 0.2456	x1 = 0.3276	x1 = 0.4224	x1 = 0.5322	x1 = 0.6613	x1 = 0.8145
298.15 K	1.815	1.725	1.606	1.56	1.511	1.49	1.478	1.494	1.55
303.15 K	1.613	1.558	1.455	1.394	1.402	1.363	1.341	1.352	1.431

CCCCCCCCCCCCCC[P+](CCCCCC)(CCCCCC)CCCCCC.N#C[N-]C#N + O
Details	viscosity [mPa·s]
303.11 K, 101 kPa, x2 = 0.198	284.5
